Measurements as given in PubChem BioAssay (NCI).
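Interpolation was linear, between the two tested concentrations surrounding the appropriate level; five concentrations were tested over 48 hours in 96-well plates. Abbreviation: GI50, concentration required for 50% inhibition of growth. Definition used: TGI = concentration required for complete inhibition of growth.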

Experiments:
Test in all cases: NCI-60 cell line screen, 48 h
[1] = tested on: 786-0 renal
[2] = tested on: A498 renal
[3] = tested on: A549 NSCLC
[4] = tested on: ACHN renal
[5] = tested on: BT-549 breast
[6] = tested on: CAKI-1 renal
[7] = tested on: CCRF-CEM leukemia
[8] = tested on: COLO 205 colon
[9] = tested on: DU-145 prostate
[10] = tested on: EKVX NSCLC
[11] = tested on: HCC-2998 colon
[12] = tested on: HCT-116 colon
[13] = tested on: HCT-15 colon
[14] = tested on: HL-60(TB) leukemia
[15] = tested on: HOP-62 NSCLC
[16] = tested on: HOP-92 NSCLC
[17] = tested on: HS 578T breast
[18] = tested on: HT29 colon
[19] = tested on: IGROV1 ovarian
[20] = tested on: K-562 leukemia
[21] = tested on: KM12 colon
[22] = tested on: LOX IMVI melanoma
[23] = tested on: M14 melanoma
[24] = tested on: MALME-3M melanoma
[25] = tested on: MCF7 breast
[26] = tested on: MDA-MB-231 breast
[27] = tested on: MDA-MB-435
[28] = tested on: MDA-MB-468 breast
[29] = tested on: MOLT-4 leukemia
[30] = tested on: NCI-H226 lung
[31] = tested on: NCI-H23 lung
[32] = tested on: NCI-H460 lung
[33] = tested on: NCI-H522 lung
[34] = tested on: NCI/ADR-RES ovarian
[35] = tested on: OVCAR-3 ovarian
[36] = tested on: OVCAR-4 ovarian
[37] = tested on: OVCAR-5 ovarian
[38] = tested on: OVCAR-8 ovarian
[39] = tested on: PC-3 prostate
[40] = tested on: RPMI-8226 leukemia
[41] = tested on: RXF 393 renal
[42] = tested on: SF-268 CNS
[43] = tested on: SF-295 CNS
[44] = tested on: SF-539 CNS
[45] = tested on: SK-MEL-2 melanoma
[46] = tested on: SK-MEL-28 melanoma
[47] = tested on: SK-MEL-5 melanoma
[48] = tested on: SK-OV-3 ovarian
[49] = tested on: SN12C renal
[50] = tested on: SNB-19 CNS
[51] = tested on: SNB-75 CNS
[52] = tested on: SR leukemia
[53] = tested on: SW-620 colon
[54] = tested on: T-47D breast
[55] = tested on: TK-10 renal
[56] = tested on: U251 CNS
[57] = tested on: UACC-257 melanoma
[58] = tested on: UACC-62 melanoma
[59] = tested on: UO-31 renal

O=C(N/N=C/c1c[nH]c2ccccc12)Nc1ccc(F)c(Cl)c1
GI50 [1]: 1.37 µM | TGI [1]: 3.27 µM | GI50 [2]: 15.4 µM | TGI [2]: 30.2 µM | GI50 [3]: 12.7 µM | TGI [3]: 26.3 µM | GI50 [4]: 14.6 µM | TGI [4]: 27.7 µM | GI50 [5]: 0.312 µM | TGI [5]: 1.54 µM | GI50 [6]: 14.8 µM | TGI [6]: 28 µM | GI50 [7]: 0.604 µM | TGI [7]: 11.7 µM | GI50 [8]: 14.1 µM | TGI [8]: 27.1 µM | GI50 [9]: 14.4 µM | TGI [9]: 27.4 µM | GI50 [10]: 13.8 µM | TGI [10]: 28.6 µM | GI50 [11]: 11.7 µM | TGI [11]: 23.9 µM | GI50 [12]: 1.49 µM | TGI [12]: 2.84 µM | GI50 [13]: 5.13 µM | TGI [13]: 17.9 µM | GI50 [14]: 3.44 µM | TGI [14]: 18.8 µM | GI50 [15]: 13.1 µM | TGI [15]: 25.8 µM | GI50 [16]: 2.04 µM | TGI [16]: 6.59 µM | GI50 [17]: 13.7 µM | TGI [17]: 39.7 µM | GI50 [18]: 12.7 µM | TGI [18]: 25.3 µM | GI50 [19]: 7.6 µM | TGI [19]: 21.7 µM | GI50 [20]: 1.86 µM | TGI [20]: 17.4 µM | GI50 [21]: 8.76 µM | TGI [21]: 21 µM | GI50 [22]: 11.2 µM | TGI [22]: 23.2 µM | GI50 [23]: 1.57 µM | TGI [23]: 3.44 µM | GI50 [24]: 12.6 µM | TGI [24]: 25.1 µM | GI50 [25]: 6.47 µM | TGI [25]: 23.1 µM | GI50 [26]: 11.8 µM | TGI [26]: 24 µM | GI50 [27]: 3.35 µM | TGI [27]: 12.6 µM | GI50 [28]: 1.98 µM | TGI [28]: 7.74 µM | GI50 [29]: 1.44 µM | TGI [29]: 11.8 µM | GI50 [30]: 10.3 µM | TGI [30]: 34.7 µM | GI50 [31]: 13.5 µM | TGI [31]: 27.2 µM | GI50 [32]: 13 µM | TGI [32]: 26.3 µM | GI50 [33]: 1.68 µM | TGI [33]: 8.35 µM | GI50 [34]: 6.05 µM | TGI [34]: 25 µM | GI50 [35]: 11.5 µM | TGI [35]: 23.6 µM | GI50 [36]: 12.8 µM | TGI [36]: 28.7 µM | GI50 [37]: 13.5 µM | TGI [37]: 26.3 µM | GI50 [38]: 14.3 µM | TGI [38]: 31.6 µM | GI50 [39]: 3.12 µM | TGI [39]: 14.5 µM | GI50 [40]: 1.48 µM | TGI [40]: 9.26 µM | GI50 [41]: 3.97 µM | TGI [41]: 15.5 µM | GI50 [42]: 8.09 µM | TGI [42]: 20.9 µM | GI50 [43]: 14.4 µM | TGI [43]: 27.4 µM | GI50 [44]: 10.1 µM | TGI [44]: 21.6 µM | GI50 [45]: 10.7 µM | TGI [45]: 22.6 µM | GI50 [46]: 12.5 µM | TGI [46]: 25 µM | GI50 [47]: 8.65 µM | TGI [47]: 20.8 µM | GI50 [48]: 12.9 µM | TGI [48]: 26.8 µM | GI50 [49]: 11.2 µM | TGI [49]: 23.2 µM | GI50 [50]: 14.9 µM | TGI [50]: 28.1 µM | GI50 [51]: 11.8 µM | TGI [51]: 24 µM | GI50 [52]: 2.2 µM | TGI [52]: 13.3 µM | GI50 [53]: 10.9 µM | TGI [53]: 22.8 µM | GI50 [54]: 11.5 µM | TGI [54]: 32 µM | GI50 [55]: 22.8 µM | TGI [55]: 44.3 µM | GI50 [56]: 13.3 µM | TGI [56]: 26 µM | GI50 [57]: 13.6 µM | TGI [57]: 26.4 µM | GI50 [58]: 10.8 µM | TGI [58]: 22.6 µM | GI50 [59]: 5.01 µM | TGI [59]: 19.4 µM
